Measurements from PMC6925343 (ACS chemical biology, 2019).

Key:
[1] = tested on: RANBP3 Ser58/Ser126 phosphorylation; experiment: RANBP3 Ser58/Ser126 phosphorylation in CSA treated HeLa cells, Western blot; assay type: cell-based; conditions: CSA 45 min, anti-pSer58/pSer126-RANBP3 antibody
[2] = tested on: SMAD2 localization in HeLa cells; conditions: CSA 45 min, n = 90 cells, three independent replicates

Substance: Cyclosporine A [CSA]
- increase of Ser58/Ser126 phosphorylation of RANBP3 [1]: approximately 2 fold
- total SMAD2 levels [2]: not changed
